Results taken from US5518735A, “Meta-substituted phenylalanine derivatives” (priority 1990, dated 1996).
Structures can show the parent of a compound that is named as a salt.

Assays:
[1] = target: thrombin (Bos taurus, UniProt P00735); test: Inhibition of thrombin (dissociation constant Ki); format: biochemical
[2] = target: T1, plasmin (Homo sapiens, UniProt P00747); test: Inhibition of plasmin (Ki); format: biochemical; conditions: Table 26
T1 construct: trypsin and the related enzymes thrombin, plasmin, factor Xa, tPA

[3] = target: factor Xa (Bos taurus, UniProt P00743); test: Inhibition of factor Xa (dissociation constant Ki); format: biochemical; conditions: Tables 19-25; read-out: Ki, Factor Xa
[4] = Plasma concentration in rats after intravenous administration (HPLC); conditions: for Concentration in plasma: i.v. 1 mg/kg
Method: (§1) For the pharmacokinetic characterization, the plasma concentration of selected derivatives was determined in rats after intravenous (i.v.), subcutaneous (s.c.) and peroral (p.o.) application according to the following three-step procedure:
(§2) 1. A physiological NaCl solution of the substance to be tested was submitted to high pressure liquid chromatography (HPLC) in order to determine its characteristic substance-specific retention time with the chosen test conditions.
(§3) 2. The substance to be tested was diluted in vitro in rat plasma. This solution was also submitted to HPLC to see whether the characteristic peak of the substance once again appeared at the substance-specific retention time.
(§4) 3. […] Blood samples were taken at time intervals of 15 minutes, from which plasma samples were prepared by centrifugation; those samples were also submitted to HPLC to see whether the characteristic peak of the substance appeared again at the substance-specific retention time.

[5] = target: tPA (Homo sapiens, UniProt P00750); test: Inhibition of tPA (Ki); format: biochemical; conditions: Table 26
[6] = target: glandular kallikrein (Sus scrofa, UniProt P00752); test: Inhibition of glandular kallikrein (Ki); format: biochemical; conditions: Table 26; read-out: Ki, Gland. Kallikrein
[7] = Plasma concentration in rats after subcutaneous administration (HPLC); conditions: rat
Method: as §1, §2, §3, §4

[8] = target: T2, plasma kallikrein (Homo sapiens, UniProt P03952); test: Inhibition of plasma kallikrein (Ki); format: biochemical; conditions: Table 26
T2 construct: glandular kallikrein, factor XIIa and plasma kallikrein

[9] = in vivo; conditions: mouse
[10] = Plasma concentration in rats after oral administration (HPLC); conditions: rat, plasma, po, 100 mg/kg
Method: as §1, §2, §3, §4

[11] = target: T3, factor XIIa (Homo sapiens, UniProt P00748); test: Inhibition of factor XIIa (Ki); format: biochemical; conditions: Table 26
T3 construct: glandular kallikrein, factor XIIa and plasma kallikrein
T3 sequence (P00748 373-615 limits assumed): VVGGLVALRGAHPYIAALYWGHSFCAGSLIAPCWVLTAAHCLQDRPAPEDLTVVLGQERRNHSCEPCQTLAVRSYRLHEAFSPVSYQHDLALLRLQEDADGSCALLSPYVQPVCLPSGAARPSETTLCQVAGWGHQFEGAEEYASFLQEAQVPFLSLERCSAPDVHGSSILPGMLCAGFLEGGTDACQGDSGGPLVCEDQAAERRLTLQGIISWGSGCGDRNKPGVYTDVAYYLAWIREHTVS

[12] = target: T4, trypsin (Bos taurus, UniProt P00760); test: Inhibition of trypsin (Ki); format: biochemical; conditions: Table 26
T4 sequence (P00760 24-246): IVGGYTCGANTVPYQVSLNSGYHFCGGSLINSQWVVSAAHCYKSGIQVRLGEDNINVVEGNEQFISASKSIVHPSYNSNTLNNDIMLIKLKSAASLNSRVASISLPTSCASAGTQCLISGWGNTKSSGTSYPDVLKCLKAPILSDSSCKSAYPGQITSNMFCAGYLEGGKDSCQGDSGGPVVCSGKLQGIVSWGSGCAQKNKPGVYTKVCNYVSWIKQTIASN

[13] = cited from earlier work

Chain of glandular kallikrein (P00752 8-246): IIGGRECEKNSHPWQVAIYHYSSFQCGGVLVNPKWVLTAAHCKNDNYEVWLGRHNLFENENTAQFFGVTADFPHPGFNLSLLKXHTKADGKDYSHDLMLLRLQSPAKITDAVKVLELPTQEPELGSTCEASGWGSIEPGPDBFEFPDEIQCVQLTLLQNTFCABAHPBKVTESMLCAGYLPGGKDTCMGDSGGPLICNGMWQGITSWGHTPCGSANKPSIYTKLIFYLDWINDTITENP
T2 sequence (P03952 391-638 limits assumed, species assumed): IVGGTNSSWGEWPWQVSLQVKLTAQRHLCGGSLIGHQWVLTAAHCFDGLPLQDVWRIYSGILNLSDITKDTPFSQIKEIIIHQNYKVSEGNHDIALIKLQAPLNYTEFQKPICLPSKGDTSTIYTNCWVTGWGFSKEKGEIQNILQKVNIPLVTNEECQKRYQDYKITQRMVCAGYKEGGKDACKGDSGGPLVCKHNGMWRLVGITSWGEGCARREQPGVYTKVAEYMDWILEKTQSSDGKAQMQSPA
T2 sequence (P03952 20-390 partner limits assumed, species assumed): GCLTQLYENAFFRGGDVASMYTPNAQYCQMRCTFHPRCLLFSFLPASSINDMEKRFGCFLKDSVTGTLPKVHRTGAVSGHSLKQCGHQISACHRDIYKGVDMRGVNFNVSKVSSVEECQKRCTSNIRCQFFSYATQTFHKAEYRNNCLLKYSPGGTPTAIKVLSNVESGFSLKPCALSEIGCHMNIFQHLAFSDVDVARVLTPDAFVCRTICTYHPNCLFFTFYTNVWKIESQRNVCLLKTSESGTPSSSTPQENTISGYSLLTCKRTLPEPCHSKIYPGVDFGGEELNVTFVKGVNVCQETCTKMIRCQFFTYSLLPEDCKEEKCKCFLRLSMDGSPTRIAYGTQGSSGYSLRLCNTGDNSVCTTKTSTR
Chain of factor Xa (P00743 234-492 limits assumed): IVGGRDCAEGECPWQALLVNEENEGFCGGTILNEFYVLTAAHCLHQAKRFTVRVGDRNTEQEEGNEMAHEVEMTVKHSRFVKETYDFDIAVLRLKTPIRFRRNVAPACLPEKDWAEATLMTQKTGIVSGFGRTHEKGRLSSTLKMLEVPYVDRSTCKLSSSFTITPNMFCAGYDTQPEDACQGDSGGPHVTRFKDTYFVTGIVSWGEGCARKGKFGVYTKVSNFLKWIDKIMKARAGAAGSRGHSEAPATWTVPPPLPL
Chain of factor Xa (P00743 41-180 partner limits assumed): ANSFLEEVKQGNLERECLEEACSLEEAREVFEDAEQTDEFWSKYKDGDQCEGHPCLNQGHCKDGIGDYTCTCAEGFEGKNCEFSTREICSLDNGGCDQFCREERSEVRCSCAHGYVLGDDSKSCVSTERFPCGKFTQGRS
T1 sequence (P00747 581-810 limits assumed): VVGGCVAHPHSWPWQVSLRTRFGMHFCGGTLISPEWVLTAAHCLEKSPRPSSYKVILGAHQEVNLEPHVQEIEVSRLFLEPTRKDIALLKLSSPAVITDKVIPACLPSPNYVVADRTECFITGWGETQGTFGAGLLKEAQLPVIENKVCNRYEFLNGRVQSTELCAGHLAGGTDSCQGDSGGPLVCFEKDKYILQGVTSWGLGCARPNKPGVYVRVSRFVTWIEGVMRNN
T1 sequence (P00747 97-580 partner limits assumed): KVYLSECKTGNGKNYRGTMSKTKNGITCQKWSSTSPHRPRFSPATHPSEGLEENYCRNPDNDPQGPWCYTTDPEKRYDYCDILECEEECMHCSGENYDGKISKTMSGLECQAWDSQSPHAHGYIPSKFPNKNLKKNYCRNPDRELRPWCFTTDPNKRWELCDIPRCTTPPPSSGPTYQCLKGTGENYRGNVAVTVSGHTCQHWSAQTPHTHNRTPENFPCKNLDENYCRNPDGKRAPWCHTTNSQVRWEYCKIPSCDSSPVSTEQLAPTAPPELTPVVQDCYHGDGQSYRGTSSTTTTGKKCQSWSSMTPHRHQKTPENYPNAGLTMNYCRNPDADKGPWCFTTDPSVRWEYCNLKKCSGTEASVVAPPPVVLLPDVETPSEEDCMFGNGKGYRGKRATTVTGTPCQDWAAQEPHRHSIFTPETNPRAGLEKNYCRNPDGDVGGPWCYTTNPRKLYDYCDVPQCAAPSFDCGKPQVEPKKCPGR
Chain of tPA (P00750 36-562): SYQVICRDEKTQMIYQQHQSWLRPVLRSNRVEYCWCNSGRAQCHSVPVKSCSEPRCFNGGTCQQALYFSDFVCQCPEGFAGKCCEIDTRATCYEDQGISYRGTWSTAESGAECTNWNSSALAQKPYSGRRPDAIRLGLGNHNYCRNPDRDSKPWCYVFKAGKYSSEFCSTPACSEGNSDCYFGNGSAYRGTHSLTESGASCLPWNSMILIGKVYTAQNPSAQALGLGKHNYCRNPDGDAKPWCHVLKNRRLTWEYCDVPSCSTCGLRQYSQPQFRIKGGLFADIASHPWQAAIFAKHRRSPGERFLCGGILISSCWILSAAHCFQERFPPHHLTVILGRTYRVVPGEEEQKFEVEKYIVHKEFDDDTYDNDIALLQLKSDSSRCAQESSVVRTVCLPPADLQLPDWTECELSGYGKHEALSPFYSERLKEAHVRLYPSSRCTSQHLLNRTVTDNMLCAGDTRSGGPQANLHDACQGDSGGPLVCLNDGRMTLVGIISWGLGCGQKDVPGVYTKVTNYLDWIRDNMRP

Row | Compound | Ki [1] | Ki [2] | Ki [3] | concentration at 2 min ([4]; rat, plasma, iv, 1 mg/kg) | concentration at 5 min ([4]; rat, plasma, iv, 1 mg/kg) | concentration at 10 min ([4]; rat, plasma, iv, 1 mg/kg) | concentration at 0.25 h ([4]; rat, plasma, iv, 1 mg/kg) | concentration at 0.5 h ([4]; rat, plasma, iv, 1 mg/kg) | concentration at 0.75 h ([4]; rat, plasma, iv, 1 mg/kg) | Ki [5] | Ki [6] | concentration at 0.5 h ([7]; plasma, sc, 5 mg/kg) | concentration at 0.75 h ([7]; plasma, sc, 5 mg/kg) | concentration at 1 h ([7]; plasma, sc, 5 mg/kg) | concentration at 1.5 h ([7]; plasma, sc, 5 mg/kg) | Ki [8] | LD50 at 168 h ([9]; iv) | LD50 at 168 h ([9]; po) | Ki [11] | Ki [12] | other results
1 | N=C(N)c1cccc(CC(NS(=O)(=O)c2ccc3ccccc3c2)C(=O)N2Cc3ccccc3CC2C(=O)O)c1 (racemic) [Compound 134, N-α-(2-Naphtylsulfonyl)-3-amidino-(D,L)-phenylalanyl-1,2,3,4-tetrahydroisoquinoline-3-carboxylic acid] | 0.018 µM | 0.67 µM | 42 µM | 4440 ng/mL | 1680 ng/mL | 775 ng/mL | 621 ng/mL | 79 ng/mL | 78 ng/mL | > 1000 µM | 390 µM | 35 ng/mL | 72 ng/mL | 79 ng/mL | 92 ng/mL | 1.5 µM | 29 mg/kg | > 3000 mg/kg | > 1000 µM |  | Concentration in plasma ([4]; rat, 90 min): 0 ng/mL; concentration at 1 h ([4]; rat, plasma, iv, 1 mg/kg): 10 ng/mL; concentration at 2 h ([7]; plasma, sc, 5 mg/kg): 145 ng/mL; concentration at 3 h ([7]; plasma, sc, 5 mg/kg): 285 ng/mL; concentration at 4 h ([7]; plasma, sc, 5 mg/kg): 268 ng/mL; concentration at 5 h ([7]; plasma, sc, 5 mg/kg): 248 ng/mL; Concentration in plasma ([7]; s.c. 5 mg/kg, 15 min): 0 ng/mL; concentration at 0.25 h [10]: 188 ng/mL; concentration at 0.5 h [10]: 260 ng/mL; concentration at 0.75 h [10]: 297 ng/mL; concentration at 1 h [10]: 260 ng/mL; concentration at 2 h [10]: 234 ng/mL; concentration at 3 h [10]: 236 ng/mL; concentration at 4 h [10]: 210 ng/mL; concentration at 5 h [10]: 157 ng/mL; concentration at 6 h [10]: 86 ng/mL
2 | COC(=O)[C@H]1CCCN1C(=O)[C@H](Cc1cccc(C(=N)N)c1)NS(=O)(=O)c1ccc2ccccc2c1 [Compound 124, N-α-(2-Naphthylsulfonyl)-3-amidino-(L)-phenylalanyl-(D)-proline-methyl ester hydrochloride] | 0.27 µM | 11 µM | 104 µM |  |  |  |  |  |  | 225 µM | > 1000 µM |  |  |  |  | 29 µM | 80 mg/kg | > 3000 mg/kg | 600 µM | 3.4 µM | 
3 | CN[C@H](Cc1ccccc1)C(=O)N1CCC[C@H]1C(=O)N[C@H](C=O)CCCN=C(N)N [N-methyl-D-Phe-Pro-Arg-H] |  |  |  |  |  |  |  |  |  |  |  |  |  |  |  |  |  |  |  |  | absorption after oral administration [13]: absorption after oral administration has so far only been observed
4 | CC1CCN(C(=O)C(Cc2cccc(C(=N)N)c2)NC(=O)CNS(=O)(=O)c2ccc3ccccc3c2)CC1 (racemic) [Compound 156, N-α-(2-Naphthylsulfonyl)-glycyl-3-amidino-(D,L)-phenylalanine-4-methylpiperidide] | 3.6 µM | 46 µM | 25 µM |  |  |  |  |  |  | 340 µM | > 1000 µM |  |  |  |  | 68 µM |  |  | 350 µM | 46 µM | 
5 | N=C(NO)c1cccc(CC(NS(=O)(=O)c2ccc3ccccc3c2)C(=O)N2Cc3ccccc3CC2C(=O)O)c1 (racemic) [Compound 190, N-α-(2-Naphthylsulfonyl)-3-oxamidino-(D,L)-phenylalanyl-1,2,3,4-tetrahydroisoquinoline-3-carboxylic acid hydroiodide] | 2.4 µM | 120 µM | 130 µM | 3260 ng/mL | 1610 ng/mL | 806 ng/mL | 496 ng/mL | 477 ng/mL | 134 ng/mL | > 1000 µM | > 1000 µM | 330 ng/mL | 374 ng/mL | 492 ng/mL | 354 ng/mL | > 1000 µM | > 150 mg/kg | > 3000 mg/kg | 460 µM | 27 µM | pharmacokinetic properties ([4]; in words, compared with NAPAP): improved pharmacokinetic properties; Concentration in plasma ([4]; rat, 60 min): 0 ng/mL; concentration at 0.25 h ([7]; plasma, sc, 5 mg/kg): 340 ng/mL; concentration at 2 h ([7]; plasma, sc, 5 mg/kg): 270 ng/mL; concentration at 3 h ([7]; plasma, sc, 5 mg/kg): 165 ng/mL; concentration at 4 h ([7]; plasma, sc, 5 mg/kg): 152 ng/mL; concentration at 5 h ([7]; plasma, sc, 5 mg/kg): 138 ng/mL; concentration at 6 h ([7]; plasma, sc, 5 mg/kg): 126 ng/mL; concentration at 0.25 h [10]: 481 ng/mL; concentration at 0.5 h [10]: 1110 ng/mL; concentration at 0.75 h [10]: 796 ng/mL; concentration at 1 h [10]: 574 ng/mL; concentration at 2 h [10]: 542 ng/mL; concentration at 3 h [10]: 217 ng/mL; concentration at 4 h [10]: 113 ng/mL; concentration at 5 h [10]: 50 ng/mL
6 | CC1CCN(C(=O)C(Cc2cccc(N)c2)NS(=O)(=O)c2ccc3ccccc3c2)CC1 (racemic) [Compound 203] | 8.9 µM | > 1000 µM | 210 µM |  |  |  |  |  |  | > 1000 µM | > 1000 µM |  |  |  |  | > 1000 µM |  |  | 270 µM | > 1000 µM | 
